Measurements taken from patent publication US20220313626A1, “SMALL MOLECULE INHIBITORS FOR TREATING CANCER IN A SUBJECT HAVING TUMORS WITH HIGH INTERSTITIAL PRESSURE” (GUANGZHOU MAXINOVEL PHARMACEUTICALS CO., LTD., priority 2019, published 2022).

Test system: B16F10 tumor cells
Assay: Anti-tumor efficacy in the B16F10 models
Type: in vivo
Details: for TGI / Tumor Volume: BID, 20 days
Experimental: Materials required for the experiment: Antibody: mouse PD-1 antibody, Product specifications: 7.09 mg/mL (50 mg/mL), Lot No.: 695318A1 purchased from BioXcell, storage at 4 °C. Experimental animals: 60 C57BL/6 mice, female, 6˜8 weeks old, 17˜21 g, purchased from Shanghai Lingchang Biotechnology Co. Ltd. Formulation materials: castor oil (Cremophor RH40) , CAS No.: 61788-85-0, Lot No.: 29761847G0, purchased from Shanghai Xietai Chemical Co. Ltd.; β-cyclodextrin (SBE-β-CD), CAS No.: 128446-35-5, Lot No.: 20180110, purchased from Shanghai Shaoyuan Chemical Co. Ltd.; DMEM culture medium, Art. No.: 11995-065, Lot No.:2025378, purchased from Gibco Co. Ltd.; PBS, Art. No.: SH30256.01, Lot No.: AB10141338, purchased from HyClone Co. Ltd.; Fetal bovine serum: Art. No.: 04-002-1A, Lot No.: 1625436, purchased from Boehringer Ingelheim Co. Ltd.; Methyl cellulose (MC), Art. No.: M7027-250G, Lot No.: 079K0054V, purchased from Sigma.
Cell preparation and implantation: The B16-F10 tumor cells (ATCC CRL6475™) were maintained in vitro as a monolayer culture in DMEM medium supplemented with 10% heat inactivated fetal bovine serum at 37° C. in an atmosphere of 5% CO2 in air. The tumor cells were routinely subcultured three times weekly by trypsin-EDTA treatment. The cells growing to a confluency around 70%-80% were harvested and counted for tumor inoculation.
Tumor cell inoculation and group administration: The 100 uL cell suspension containing 1×10^6 B16F10 tumor cells (cells suspended in base DMEM medium) was inoculated into the right subcutaneous of mice. On the second day after inoculation, according to the order of tumor inoculation, stratified randomization was used to group and start the administration on the day of grouping.
Preparation of test substances: Preparation of formulation: 700 mL of sterile water was added into the volumetric flask with magnetic stirring to have a vortex. 100 g of castor oil (Cremophor RH40) was added with a spoon slowly into the vortex and the solution was kept stirring. 200 g of β-cyclodextrin (SBE-β-CD) was added while the solution was kept stirring until the solution was clear, and the total volume was set to 1000 mL, which contained 10% (w/v) Cremophor RH40+20% (w/v) an aqueous solution of SBE-β-CD.
Preparation of compound suspension: 169.16 mg compound was weighed, 14.012 mL 10% (w/v) Cremophor RH40+20% (w/v) SBE-β-CD aqueous solution were added, and the suspension solution with a concentration of 12.0 mg/mL was obtained by fully mixing with magnetic stirring. 6.0 mL of the compound suspension solution with concentration of 12.0 mg/mL was pipetted and 6.0 mL aqueous formulation solution was added. The suspension solution with a concentration of 6.0 mg/mL was obtained by fully mixing with magnetic stirring. 6.0 mL of the compound suspension solution with concentration of 6.0 mg/mL was pipetted and 6.0 mL aqueous formulation solution was added. The suspension solution with a concentration of 3.0 mg/mL was obtained by fully mixing with magnetic stirring. The compound suspension solution was prepared once a day.
Preparation of mPD-1 antibody: 0.564 mL mPD-L1 antibody (7.09 mg/mL) original solution was pipetted and […] PBS solution was added. The solution was fully mixed and the final concentration of 1 mg/mL solution was obtained.
Procedure: The mice in the vehicle group were weighed and recorded in the electronic balance according to their numbers. The mice in the vehicle group were given prepared formulation solution twice a day by oral administration according to their body weight with a capacity of 0.1 mL/10 g. Each mouse spent about 20 seconds and 10 mice in each group shared for about 5 minutes.
The mice in the antibody (10 mg/kg) group were weighed and recorded in the electronic balance according to their numbers. The mice in the antibody group were given prepared antibody solution twice a week by IP administration according to their body weight with a capacity of 0.1 ml/10 g. […]

[1] = B16F10, C57BL/6 mice, 30 mg/kg, PO
[2] = B16F10, C57BL/6 mice, 60 mg/kg, PO
[3] = B16F10, C57BL/6 mice, 120 mg/kg, PO

## Cc1c(/C=C/c2cc(CN[C@@](C)(CO)C(=O)O)ccc2C(F)(F)F)cccc1-c1ccccc1 [Compound]
B16F10, C57BL/6 mice
  growth of subcutaneous transplanted melanoma cell line in mice: significantly inhibit the growth
[1]
  TGI: 35.59%
  Tumor Volume: 795.99 ± 112.92 mm^3
[2]
  TGI: 38.87%
  Tumor Volume: 755.48 ± 155.85 mm^3
[3]
  TGI: 47.35%
  Tumor Volume: 650.67 ± 157.53 mm^3
C57BL/6 mice, PO, BID up to 120 mg/kg
  tolerability (adverse reactions): well tolerated
